Experimental data reported in patent US20220411759A1, “ENDOCRINE DIFFERENTIATION-INDUCING MOLECULE” (President and Fellows of Harvard College, priority 2019, published 2022).

Assays:
[1] = test system: HUES8 human embryonic stem cells; test: Flow cytometry of cell proportions during directed differentiation of hESCs into β cells; format: cell-based
Procedure: (§1) HUES8 ([…]) human embryonic stem cells and human induced pluripotent stem cells (hiPSCs) from line 1016 (person) were obtained from the Human Embryonic Stem Cell Facility and iPS Core Facility of the Harvard Stem Cell Institute. Cells were differentiated into beta like cells in suspension as described previously^37. Briefly, 150Xe^6 cells were suspended in 300 ml of supplemented mTeSR1 and grown in spinning flasks (70 rpm, 37° C., 5% CO2) for 48 hours prior to the beginning of a stepwise differentiation protocol:
Stage 4—5 days in S3 medium supplemented with KGF (50 ng/ml), Sant1 (0.25 μM) and retinoic acid (0.1 μM).
Stage 5—7 days in BE5 medium supplemented with Beta Cellulin (20 ng/ml). XXI (1 μM), Alk5ill(10 μM) and T3 (1 μM). Sant1 (0.25 μM) was added in the first three days, and retinoic acid was added at 0.1 μM in the first three days, then at 0.025 μM.
Stage 6—CMRLS medium supplemented with Alk5iII (10 μM) and T3 (1 μM).
In many of the experiments following cell collection for sc-RNAseq, the protocol was slightly modified to add Y-27632 (10 μM) at stage 3-5, and ActivinA (5 ng/ml) in stage 4. In some cases, an extra day at stage 4 was also added. For the presented functional and flow cytometry analysis in stage 6, CMRLS based media was replaced with S3 medium, without supplements.
(§2) Factors were tested in either 6-well plates placed on a rocker, or in Biott ABLE Bioreactors (Stemgent). IWR1-endo (Sigma-Aldrich) was used at 5 μM. XAV939 (Santa Cruz, SC-296704A) was used at 5 μM. Recombinant human BMP2/BMP7 (Thermo-Fisher) was used at […]. when added during stage 4, CHIR99021 was used at a concentration of […].
Differentiated cell clusters were dispersed into single-cell suspension by incubation in TrypLE Express at 37° C., quenched with PBS+2% FBS, fixed with 4% PFA for 30 min at 4° C., washed once in PBS, and resuspended in PBS+2% FBS. Staining was done in 96-well plates. Cells were incubated in blocking buffer (PBS+0.1% Triton X-100+5% donkey serum) at 4° C. for 30-60 min. Cells were then re-suspended in blocking buffer with primary antibodies and incubated at room temperature for 1 hour or at 4° C. overnight. Cells were washed twice in blocking buffer and incubated in blocking buffer with secondary antibodies at 4° C. for 1 hour. Cells were then washed three times in PBS+5% Donkey serum and analyzed using either the BD Accuri c6 flow cytometer or the LSR-II flow cytometer (BD Biosciences). Analysis of the results was performed using FlowJo software.

[2] = test system: differentiating hESC clusters; test: Cell concentration in differentiation batches during stage 6; format: cell-based, human; settings: treatment during stage 5, vs control
Procedure: The relative changes in gene expression relative to control conditions are presented in log values, for two independent experiments. FIG. 9E provides cell concentration in the differentiation batches analyzed in FIG. 4H. […] Bars show the average±S.E. n, from left to right: 8 (7 for IWR), 6, 8, 7, 6. […] The bars show geometric mean±S.E. of the fold change in insulin secretion following the transition from low (2.8 mM) to high (20 mM) glucose levels. FIG. 9F provides fold change in insulin secretion after one stimulation with high glucose. From left to right: n=5,6,6,3; 2-way ANOVA on log(Fold insulin secretion): p-value=0.83 and 0.16 for differences caused by the treatment or the day of analysis, respectively. […]
Differentiated cells were washed twice in Krebs buffer (Krb) containing 2.8mM glucose, and then distributed into 24-well plates containing Millicell Cell culture inserts for easy transfer between conditions. […] At the end of each step (excluding the wash), the incubation buffer was collected and the amount of insulin secreted during the hour's incubation was determined using human insulin ELISA kit (ALPCO diagnostics; 80-INSHUU-E01.1). Clusters were then dispersed into single cells using TrypLE Express (Life Technologies), and cell number was counted automatically by a Vi-Cell (Beckman Coulter).

[3] = test system: differentiating hESC clusters; test: Nanostring mRNA expression of endocrine, hormone and progenitor markers in differentiating clusters; format: cell-based, human; settings: treatment during both stages 4 and 5; relative to control
Procedure: as §2
Cells were collected for RNA extraction in RLT Lysis Buffer (Qiagen) and frozen at −80° C. RNA was extracted using the RNeasy Mini Kit (Qiagen), according the manufacturer's instructions—including DNA digestion, and 100 ng of RNA was used for each reaction. Nanostring set up was performed according to the protocol for the nCounter XT Gene Expression Assay. Data was analyzed in the nSolver 2.5 Software. All genes were normalized to housekeeping genes (ITCH, RPL15, RPL19, TCEB1, UBE2D3). Analysis of changes in gene expression of markers for endocrine and progenitor cells was done using R.

[4] = test system: human induced pluripotent stem cells (hiPSCs) from line 1016; test: Flow cytometry of cell proportions during directed differentiation of hiPSC-1016; format: cell-based; settings: stage 5
Procedure: as §1, §2
Differentiated cell clusters were dispersed into single-cell suspension by incubation in TrypLE Express at 37° C., quenched with PBS+2% FBS, fixed with 4% PFA for 30 min at 4° C., washed once in PBS, and resuspended in PBS+2% FBS. Staining was done in 96-well plates. Cells were incubated in blocking buffer (PBS+0.1% Triton X-100+5% donkey serum) at 4° C. for 30-60 min. […] Cells were then washed three times in PBS+5% Donkey serum and analyzed using either the BD Accuri c6 flow cytometer or the LSR-II flow cytometer (BD Biosciences). […]

[5] = test system: in vitro generated β cells; test: Glucose stimulated insulin secretion (GSIS) of stage 6 cells; format: cell-based, human
Procedure: Differentiated cells were washed twice in Krebs buffer (Krb) containing 2.8mM glucose, and then distributed into 24-well plates containing Millicell Cell culture inserts for easy transfer between conditions. Each well received 0.5 ml buffer with approximately 10^6 cells. After fasting in 2.8 mM glucose for 1 hour in 37° C., the analysis of the cells' response to changing glucose levels was performed by a series of 1 hour incubations in 37° C., in the following order: 1) 2.8 mM (low) glucose. 2) 20 mM (high) glucose. 3) brief wash in 2.8 mM glucose. 4) 1 hour incubation in 2.8 mM glucose. 5) 20 mM glucose. 6) 2.8 mM glucose with 30 mM KCL. At the end of each step (excluding the wash), the incubation buffer was collected and the amount of insulin secreted during the hour's incubation was determined using human insulin ELISA kit (ALPCO diagnostics; 80-INSHUU-E01.1). Clusters were then dispersed into single cells using TrypLE Express (Life Technologies), and cell number was counted automatically by a Vi-Cell (Beckman Coulter).

[6] = test system: differentiating hESC clusters; settings: Activin A and Y-27632 given together during stage 4; cited from earlier work
[7] = XXI removed from the media during stage 5, flow cytometry at end of stage 5, vs control with XXI
[8] = factor added during stage 4, flow cytometry at end of stage 4, vs control

## C[C@H](NC(=O)Cc1cc(F)cc(F)c1)C(=O)N[C@H]1N=C(c2ccccc2)c2ccccc2N(C)C1=O [XXI]
[1]; [7]
  number of CPEP+NKX6.1+ β cells: dramatically reduced
  number of GLP2+ α cells: did not significantly affect

## O=C(Nc1cccc2cccnc12)c1ccc(N2C(=O)[C@@H]3[C@H](C2=O)[C@@H]2C=C[C@H]3C2)cc1 [IWR1-endo]
[2]
  overall cell numbers / cell concentration during stage 6: slightly increased
[2]; listed as IWR
  overall cell numbers / cell concentration during stage 6: slightly higher
[3]
  expression of endocrine markers: increased expression
  expression of progenitor markers: downregulated
[1]; [8]
  number / proportion of CHGA+ endocrine cells: significantly raised
  number / proportion of PDX1+/NKX6.1+ progenitors: reduced
[1]; treatment during stage 5, concluded from β cell proportion and cell numbers
  overall yield of in vitro generated β cells: increases
[1]; treatment during stage 5, flow cytometry at end of stage 5
  increase in proportion of C-PEP+/NKX6.1+ β cells, on average, relative to controls: more than 50%
[1]; treatment during stage 5, flow cytometry at end of stage 5, compared with the stage 4 effect
  proportion of CHGA+ endocrine cells: even higher relative increase
[4]
  proportion of hiPSC-1016 derived CHGA+ cells: increases
[5]; treatment during stage 5, 2.8 mM to 20 mM glucose
  insulin secretion in response to high glucose levels (first stimulation): maintain their ability to secrete insulin
[5]; treatment during stage 5, consecutive stimulations, 20 mM glucose
  insulin release on second stimulation with high glucose, compared to controls: release less insulin in the second challenge

## Cc1c[nH]c(-c2cnc(NCCNc3ccc(C#N)cn3)nc2-c2ccc(Cl)cc2Cl)n1 [CHIR99021]
[1]; [8]
  number / proportion of CHGA+ endocrine cells: decreased

## C[C@@H](N)[C@H]1CC[C@H](C(=O)Nc2ccncc2)CC1 [Y-27632]
[6]
  appearance of buds on the clusters' surface: induces

B1: Activin A: protein factor (R&D Systems) added to differentiation media (protein, UniProt P08476 311-426, looked up)
Inhibin beta A chain: GLECDGKVNICCKKQFFVSFKDIGWNDWIIAPSGYHANYCEGECPSHIAGTSGSSLSFHSTVINHYRMRGHSPFANLKSCCVPTKLRPMSMLYYDDGQNIIKKDIQNMIVEECGCS
modifications: Inhibin beta A chain
notes: protein factor (R&D Systems) added to differentiation media
[6]
  appearance of buds on the clusters' surface: induces
